# Data reported in publication PMC10222323, “Novel Biotinylated Cu(II)-Phenanthroline Complexes: 2D and 3D Cytotoxic Activity and Mechanistic Insight” (Molecules, 2023).
# Assays:
# [1] = system: genomic DNA of MDA-MB-231 cells; details: 3 h; for cells with lesioned genomic DNA (comets): 4 μM, fraction of treated cells
# Method: As proof of the principle of their DNA-targeting ability, the alkaline single-cell gel electrophoresis (Comet assay, Figure 4) assay was performed to evaluate cellular genomic DNA lesions induced by tested complexes. […] MDA-MDB-231 cells were exposed for 3 h to 4 μM of tested compounds or 200 µM of the reference drug chlorambucil. Figure 4A depicts the relative percentage of comets and the number of cells forming a comet relative to the total number of detected cells per each condition in two randomly captured fields from two independent experiments. […] On the other hand, some reports highlighted protein disulphide isomerase (PDI) as an emerging target for copper complexes. On this basis, we also evaluated the ability of our complexes to act as PDI inhibitors. The enzyme was treated with 25 µM of complexes 2 and 4, and the ability to hamper its activity was assessed by a biochemical colourimetric method (Proteostat kit).
# About 3 × 10^4 MDA-MB-231 cells were seeded in 25 cm^2 flasks in a growth medium. After overnight incubation, cells were treated for 3 h with […] of tested compounds and processed as previously described. Pictures were captured with a Zeiss LSM-800 confocal microscope (Zeiss, Oberkochen, Germany). All photos were analyzed by the Zen 2.3 system (Zeiss, Oberkochen, Germany).
# Figure 4 Mechanistic studies. (A) Comet assay: MDA-MDB-231 cells were treated for 3 h with 4 μM of tested compounds 2 and 4 or 200 µM of the reference drug chlorambucil. The relative percentage of comets (number of cells forming a comet/total number of cells) was detected in two randomly captured fields from two independent experiments. (B) PDI inhibition induced by tested compounds was measured by Proteostat PDI assay kit. The PDI inhibitor Bacitracine (0.5 mM) was used as a positive control. Error bars indicate S.D. ** p < 0.01 compared with control.
# [2] = system: MDA-MB-231 cells; details: 24 h, 2 and 3 μM
# Method: The ability to enter cancer cells is a very important factor to determine the biological activity of metal-based compounds. Consequently, with the aim of correlating the antiproliferative activity elicited by all the newly developed complexes and their accumulation profiles into cancer cells, the Cu content was evaluated in the SMVT overexpressing MDA-MB-231 cells. Uptake profiles were determined by treating cancer cells for 24 h with two concentrations (2 and 3 μM) of tested complexes.
# MDA-MB-231 cells (2.5 × 10^6) were seeded in 75 cm^2 flasks in a growth medium (20 mL). Following 24 h, cells were treated for 24 h with tested complexes and samples processed as previously described.
# Figure 2 Cellular uptake of complexes 1–4 in drug-treated MDA-MB-231 human breast cancer cells. Cells were incubated for 24 h with […] of tested complexes. The amount of cellular Cu was estimated by GF-AAS. Error bars are S.D.
# [3] = target: T1, protein disulphide isomerase (PDI) (Homo sapiens, UniProt P07237); test: PDI reductase activity (PROTEOSTAT PDI assay kit); type: biochemical; details: 25 µM of complex
# T1 construct: purchased Enzo Life Sciences, Lausen, Switzerland
# T1 sequence (P07237 18-508): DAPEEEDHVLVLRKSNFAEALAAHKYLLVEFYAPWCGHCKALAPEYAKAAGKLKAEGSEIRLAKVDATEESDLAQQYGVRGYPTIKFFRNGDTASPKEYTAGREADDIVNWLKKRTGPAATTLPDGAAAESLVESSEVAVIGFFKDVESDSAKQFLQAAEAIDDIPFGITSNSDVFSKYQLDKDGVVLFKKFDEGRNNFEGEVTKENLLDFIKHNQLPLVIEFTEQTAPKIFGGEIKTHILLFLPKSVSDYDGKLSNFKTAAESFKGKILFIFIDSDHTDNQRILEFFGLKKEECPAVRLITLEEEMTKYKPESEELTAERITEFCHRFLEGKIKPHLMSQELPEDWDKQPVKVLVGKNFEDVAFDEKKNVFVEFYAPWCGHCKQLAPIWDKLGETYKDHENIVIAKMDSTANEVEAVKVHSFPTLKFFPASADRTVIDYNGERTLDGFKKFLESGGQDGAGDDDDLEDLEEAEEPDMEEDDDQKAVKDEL
# Method: MDA-MDB-231 cells were exposed for 3 h to 4 μM of tested compounds or 200 µM of the reference drug chlorambucil. […] On the other hand, some reports highlighted protein disulphide isomerase (PDI) as an emerging target for copper complexes.
# The reductase activity of PDI was assayed by measuring the PDI-catalysed reduction of insulin in the presence of increasing concentrations of the tested compounds by using the PROTEOSTAT PDI assay kit (Enzo Life Sciences, Lausen, Switzerland). Experiments were performed according to the manufacturer’s instructions as previously described. IC50 values were calculated by the 4-PL model.
# Figure 4 Mechanistic studies. (A) Comet assay: MDA-MDB-231 cells were treated for 3 h with 4 μM of tested compounds 2 and 4 or 200 µM of the reference drug chlorambucil. […] The PDI inhibitor Bacitracine (0.5 mM) was used as a positive control.
# [4] = system: U1285 (lung) cancer cells; test: MTT cytotoxicity test, 72 h, U1285; type: cell-based, human; details: mean ± S.D., read-out: IC50 U-1285
# Method: (§1) The in vitro anticancer potential of the newly developed complexes and of the ligands has been tested on six different cancer cell lines including PSN-1 (pancreatic), HCT-15 (colorectal with low sensitivity for cisplatin), 2008 (ovarian), A431 (cervical), MDA-MB-231 (breast), and U1285 (lung) cancer cells. For comparison purposes, cisplatin efficacy was assessed under the same experimental conditions.
# (§2) Tested compounds were dissolved in DMSO and added to the cell-growth medium to a final solvent concentration of 0.5%, which is well reported to not have cytotoxic effects on cell viability. Cisplatin (Sigma Chemical Co., St. Louis, MO, USA) was dissolved in a physiologic solution (0.9% sodium chloride).
# (§3) The growth inhibitory effect toward the tumour cell lines was evaluated by the MTT test as previously described.
# [5] = system: six different cancer cell lines; test: MTT cytotoxicity, average over the cancer cell line panel; type: cell-based, human; details: 2D assays, average over the cancer cell lines of Table 1
# Method: as §1
# Due to note, all the complexes were very effective in the MDA-MB-231 cell line, which overexpress the SMVT (sodium-dependent multivitamin transporter) receptor, which is well known to be involved in the intracellular translocation of biotin [24].
# as §3
# [6] = system: MDA-MB-231 cells; details: 3 μM, 24 and 48 h
# [7] = system: 2008 (ovarian) cancer cells; test: MTT cytotoxicity test, 72 h, 2008; type: cell-based, human
# Method: as §1
# Table 2 reported the IC50 values of the complexes against two types of ovarian cancer cells, one sensitive (2008) and one resistant to cisplatin (C13*). […] The resistance factor (R.F., the ratio among IC50 values obtained in resistant C13*cells and those calculated in the sensitive 2008 ones) calculated for all tested complexes resulted to be ≤2 (R.F. for cisplatin 11.1), strongly confirming the ability of the complexes to bypass cisplatin resistance.
# as §2
# (§4) Human colon (HCT-15), pancreatic (PSN-1), and breast (MDA-MB-231) carcinoma-cell lines were obtained from the American Type Culture Collection (ATCC, Rockville, MD). Human cervical carcinoma (A431) cells were kindly provided by Prof. F. Zunino (Division of Experimental Oncology B, Istituto Nazionale dei Tumori, Milan). Human ovarian carcinoma (2008) cells and their cisplatin-resistant counterpart (C13*) were kindly provided by Prof. G. Marverti (Dipartimento di Scienze Biomediche, Università di Modena University, Italy). Cell lines were cultured in RPMI-1640 or DMEM medium (Euroclone) added with 10% fetal calf serum (Euroclone, Milan, Italy), antibiotics (50 units per mL penicillin, and 50 μg mL^−1 streptomycin), and 2 mM L-glutamine.
# as §3
# [8] = system: MDA-MB-231 (breast) cancer cells; test: MTT cytotoxicity test, 72 h, MDA-MB-231; type: cell-based, human; details: mean ± S.D.
# Method: as §1, §2, §4, §3
# [9] = Table 2, cisplatin-sensitive parental cells
SMILES,DNA damaging efficacy compared with chlorambucil ([1]; 4 μM compound vs 200 µM chlorambucil),cells with lesioned genomic DNA (comets) [1],Cu intracellular content (uptake) [2],PDI inhibition [3],IC50 [4],IC50 [5],apoptosis induction (Hoechst staining) [6],"IC50 ([7]; Table 1, mean ± S.D.)","IC50 [7, 9]",IC50 [8]
"O=C(CCCC[C@@H]1SC[C@@H]2NC(=O)N[C@@H]21)NN=C1C(=O)c2ccc[n+]3c2-c2c1ccc[n+]2[Cu-2]31[n+]2cccc3ccc4ccc[n+]1c4c32.O=[N+]([O-])[O-].O=[N+]([O-])[O-] [Complex 4, [Cu(phen)(phendione-biotin)](NO3)2]",much higher than that induced by the reference compound chlorambucil,one third,most internalised into cancer cells,15%,2000 ± 600 nM,800 nM,morphological features typical of cells undergoing apoptosis,600 ± 200 nM,600 ± 200 nM,600 ± 100 nM
"O=C(CCCC[C@@H]1SC[C@@H]2NC(=O)N[C@@H]21)NN=C1C(=O)c2ccc[n+]3c2-c2c1ccc[n+]2[Cu-2]3([Cl])[Cl] [Complex 2, [Cu(phendione-biotin)Cl2]]",,at least one fourth,,45%,3800 ± 500 nM,,,1100 ± 300 nM,1100 ± 300 nM,1400 ± 100 nM
